{"source": "ChEMBL document CHEMBL1133535", "about": "“Pyrido[2,3-d]pyrimidin-7-one inhibitors of cyclin-dependent kinases” (J Med Chem, 2000)", "key": {"[1]": {"molecular_target": "Cyclin-dependent kinase 4/cyclin D (Homo sapiens, UniProt P11802)", "experiment": "Inhibition of Cyclin-dependent kinase 4-cyclin D", "format": "protein-complex assay"}, "[2]": {"molecular_target": "Fibroblast growth factor receptor (Homo sapiens, UniProt P22607+P11362+P22455+P21802)", "experiment": "Inhibition of Fibroblast growth factor receptor (FGFr)", "format": "protein assay"}, "[3]": {"molecular_target": "Cyclin-dependent kinase 1/cyclin B (Homo sapiens, UniProt P06493)", "experiment": "Inhibition of Cyclin-dependent kinase 1-cyclin B", "format": "protein-complex assay"}, "[4]": {"molecular_target": "Proto-oncogene tyrosine-protein kinase Src (Homo sapiens, UniProt P12931)", "sequence (P12931 2-536 limits assumed)": "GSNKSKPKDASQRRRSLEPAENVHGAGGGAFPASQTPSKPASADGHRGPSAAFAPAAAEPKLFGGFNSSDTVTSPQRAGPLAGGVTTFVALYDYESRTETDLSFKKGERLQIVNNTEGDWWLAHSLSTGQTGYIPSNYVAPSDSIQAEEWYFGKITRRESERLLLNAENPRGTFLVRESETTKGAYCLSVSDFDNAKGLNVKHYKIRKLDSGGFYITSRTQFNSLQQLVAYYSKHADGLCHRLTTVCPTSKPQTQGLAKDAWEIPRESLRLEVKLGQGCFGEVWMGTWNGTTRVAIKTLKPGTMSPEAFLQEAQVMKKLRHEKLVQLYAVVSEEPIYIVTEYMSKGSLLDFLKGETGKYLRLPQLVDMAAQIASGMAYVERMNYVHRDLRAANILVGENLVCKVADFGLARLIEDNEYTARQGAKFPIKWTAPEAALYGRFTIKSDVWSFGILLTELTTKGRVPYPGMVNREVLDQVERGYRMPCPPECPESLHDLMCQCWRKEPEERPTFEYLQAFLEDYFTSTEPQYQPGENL", "experiment": "Inhibition of c-Src tyrosine kinase"}, "[5]": {"molecular_target": "Cyclin-dependent kinase 2/cyclin E (Homo sapiens, UniProt P24941)", "experiment": "Inhibition of Cyclin-dependent kinase 2-cyclin E", "format": "protein-complex assay"}, "HCT-116": {"tested_on": "HCT-116", "experiment": "Inhibition of HCT116 human colon carcinoma cell proliferation", "format": "functional, cell-based"}, "[6]": {"molecular_target": "Cyclin-dependent kinase 2/cyclin A (Homo sapiens, UniProt P24941)", "experiment": "Inhibition of Cyclin-dependent kinase 2-cyclin A", "format": "protein-complex assay"}}, "data": [{"smiles": "CN1CCN(c2ccc(Nc3ncc4ccc(=O)n(-c5ccccc5)c4n3)cc2)CC1", "values": [{"measurement": "IC50", "setting": "[1]", "value": 175, "unit": "nM"}]}, {"smiles": "CC(C)CCn1c(=O)ccc2cnc(Nc3ccccc3)nc21", "values": [{"measurement": "IC50", "setting": "[1]", "value": 159, "unit": "nM"}]}, {"smiles": "O=c1ccc2cnc(Nc3ccccc3)nc2n1-c1ccccc1", "values": [{"measurement": "IC50", "setting": "[1]", "value": 1670, "unit": "nM"}]}, {"smiles": "CCN(CC)CCOc1ccc(Nc2ncc3ccc(=O)n(C4CCCCCC4)c3n2)cc1", "values": [{"measurement": "IC50", "setting": "[1]", "value": 4, "unit": "nM"}]}, {"smiles": "CCCn1c(=O)ccc2cnc(Nc3ccccc3)nc21", "values": [{"measurement": "IC50", "setting": "[2]", "value": 6.6, "unit": "µM"}]}, {"smiles": "CC(C)n1c(=O)ccc2cnc(Nc3ccccc3)nc21", "values": [{"measurement": "IC50", "setting": "[1]", "value": 145, "unit": "nM"}]}, {"smiles": "CCOCCn1c(=O)ccc2cnc(Nc3ccccc3)nc21", "values": [{"measurement": "IC50", "setting": "[1]", "value": 7800, "unit": "nM"}]}, {"smiles": "O=c1ccc2cnc(Nc3ccccc3)nc2n1CC1CCCCC1", "values": [{"measurement": "IC50", "setting": "[1]", "value": 13500, "unit": "nM"}]}, {"smiles": "COCCn1c(=O)ccc2cnc(Nc3ccccc3)nc21", "values": [{"measurement": "IC50", "setting": "[1]", "value": 2860, "unit": "nM"}]}, {"smiles": "CN1CCN(c2ccc(Nc3ncc4ccc(=O)n(C5CC5)c4n3)cc2)CC1", "values": [{"measurement": "IC50", "setting": "[1]", "value": 140, "unit": "nM"}]}, {"smiles": "CCn1c(=O)ccc2cnc(Nc3ccc(N4CCCCC4)cc3)nc21", "values": [{"measurement": "IC50", "setting": "[1]", "value": 300, "unit": "nM"}]}, {"smiles": "COC(=O)Cn1c(=O)ccc2cnc(Nc3ccccc3)nc21", "values": [{"measurement": "IC50", "setting": "[1]", "value": 31000, "unit": "nM"}]}, {"smiles": "CCCCn1c(=O)ccc2cnc(Nc3ccccc3)nc21", "values": [{"measurement": "IC50", "setting": "[2]", "value": 5.29, "unit": "µM"}, {"measurement": "IC50", "setting": "[3]", "value": 2000, "unit": "nM"}]}, {"smiles": "CCn1c(=O)ccc2cnc(Nc3cccc(OC)c3)nc21", "values": [{"measurement": "IC50", "setting": "[1]", "value": "> 40000", "unit": "nM"}]}, {"smiles": "CC(C)n1c(=O)ccc2cnc(Nc3ccc(N4CCN(C)CC4)cc3)nc21", "values": [{"measurement": "IC50", "setting": "[2]", "value": 0.07, "unit": "µM"}]}, {"smiles": "CCn1c(=O)ccc2cnc(Nc3ccc(O)c(OC)c3)nc21", "values": [{"measurement": "IC50", "setting": "[1]", "value": 1820, "unit": "nM"}]}, {"smiles": "CN1CCN(c2ccc(Nc3ncc4ccc(=O)n(C5CC6CCC5C6)c4n3)cc2)CC1", "note": "(stereo not drawn)", "values": [{"measurement": "IC50", "setting": "[1]", "value": 6, "unit": "nM"}]}, {"smiles": "CCN(CC)CCOc1ccc(Nc2ncc3ccc(=O)n(C4CCCC4)c3n2)cc1", "values": [{"measurement": "IC50", "setting": "[1]", "value": 0.7, "unit": "nM"}]}, {"smiles": "CCn1c(=O)ccc2cnc(Nc3ccccc3)nc21", "values": [{"measurement": "IC50", "setting": "[4]", "value": 21, "unit": "µM"}, {"measurement": "IC50", "setting": "[2]", "value": 3.295, "unit": "µM"}, {"measurement": "IC50", "setting": "[1]", "value": 620, "unit": "nM"}]}, {"smiles": "CCn1c(=O)ccc2cnc(Nc3cccc(OC(F)(F)C(F)F)c3)nc21", "values": [{"measurement": "IC50", "setting": "[2]", "value": 44.2, "unit": "µM"}]}, {"smiles": "CCC(C)n1c(=O)ccc2cnc(Nc3ccccc3)nc21", "note": "(stereo not drawn)", "values": [{"measurement": "IC50", "setting": "[1]", "value": 190, "unit": "nM"}]}, {"smiles": "CCn1c(=O)ccc2cnc(NCc3ccccc3)nc21", "values": [{"measurement": "IC50", "setting": "[1]", "value": "> 40000", "unit": "nM"}]}, {"smiles": "CCn1c(=O)ccc2cnc(Nc3ccc(N4CCC(CCCO)CC4)cc3)nc21", "values": [{"measurement": "IC50", "setting": "[1]", "value": 900, "unit": "nM"}]}, {"smiles": "CCN(CC)CCOc1ccc(Nc2ncc3ccc(=O)n(C4CCCCC4)c3n2)cc1", "values": [{"measurement": "IC50", "setting": "[1]", "value": 11, "unit": "nM"}]}, {"smiles": "CC(C)Cn1c(=O)ccc2cnc(Nc3ccccc3)nc21", "values": [{"measurement": "IC50", "setting": "[1]", "value": 297, "unit": "nM"}]}, {"smiles": "CCn1c(=O)ccc2cnc(Nc3ccc(O)cc3)nc21", "values": [{"measurement": "IC50", "setting": "[1]", "value": 585, "unit": "nM"}]}, {"smiles": "CCN(CC)c1ccc(Nc2ncc3ccc(=O)n(CC)c3n2)cc1", "values": [{"measurement": "IC50", "setting": "[1]", "value": 1400, "unit": "nM"}]}, {"smiles": "CN1CCN(c2ccc(Nc3ncc4ccc(=O)n(C5CCCCC5)c4n3)cc2)CC1", "values": [{"measurement": "IC50", "setting": "[5]", "value": 20, "unit": "nM"}, {"measurement": "IC50", "setting": "[2]", "value": 0.051, "unit": "µM"}, {"measurement": "IC50", "setting": "[1]", "value": 4, "unit": "nM"}]}, {"smiles": "CCn1c(=O)ccc2cnc(Nc3ccc(OC)c(OC)c3)nc21", "values": [{"measurement": "IC50", "setting": "[1]", "value": 4080, "unit": "nM"}]}, {"smiles": "CN1CCN(c2ccc(Nc3ncc4ccc(=O)n(C5CCCC5)c4n3)cc2)CC1", "values": [{"measurement": "IC50", "setting": "[1]", "value": 9, "unit": "nM"}]}, {"smiles": "CN1CCN(c2ccc(Nc3ncc4ccc(=O)n(CC(O)CO)c4n3)cc2)CC1", "note": "(stereo not drawn)", "values": [{"measurement": "IC50", "setting": "[1]", "value": 1650, "unit": "nM"}]}, {"smiles": "CCn1c(=O)ccc2cnc(NC(C)C)nc21", "values": [{"measurement": "IC50", "setting": "[1]", "value": 4320, "unit": "nM"}]}, {"smiles": "CCn1c(=O)ccc2cnc(Nc3ccc(-n4cccc4)cc3)nc21", "values": [{"measurement": "IC50", "setting": "[1]", "value": 2750, "unit": "nM"}]}, {"smiles": "COCn1c(=O)ccc2cnc(Nc3ccccc3)nc21", "values": [{"measurement": "IC50", "setting": "[1]", "value": 4150, "unit": "nM"}]}, {"smiles": "CCn1c(=O)ccc2cnc(N(C)c3ccccc3)nc21", "values": [{"measurement": "IC50", "setting": "[1]", "value": "> 40000", "unit": "nM"}]}, {"smiles": "CN1CCN(c2ccc(Nc3ncc4ccc(=O)n(CCOCc5ccccc5)c4n3)cc2)CC1", "values": [{"measurement": "IC50", "setting": "[1]", "value": 2100, "unit": "nM"}]}, {"smiles": "CCn1c(=O)ccc2cnc(Nc3ccncc3)nc21", "values": [{"measurement": "IC50", "setting": "[1]", "value": 1170, "unit": "nM"}]}, {"smiles": "CCn1c(=O)ccc2cnc(Nc3ccc(OCCOC)cc3)nc21", "values": [{"measurement": "IC50", "setting": "[1]", "value": 2330, "unit": "nM"}]}, {"smiles": "CCn1c(=O)ccc2cnc(Nc3ccc(OCCN(C)C)cc3)nc21", "values": [{"measurement": "IC50", "setting": "[1]", "value": 330, "unit": "nM"}]}, {"smiles": "CCN(CC)CCOc1ccc(Nc2ncc3ccc(=O)n(C4CC5CCC4C5)c3n2)cc1", "note": "(stereo not drawn)", "values": [{"measurement": "IC50", "setting": "[1]", "value": 450, "unit": "nM"}]}, {"smiles": "CC(C)CCn1c(=O)ccc2cnc(Nc3ccc(N4CCN(C)CC4)cc3)nc21", "values": [{"measurement": "IC50", "setting": "[1]", "value": 13, "unit": "nM"}]}, {"smiles": "O=c1ccc2cnc(Nc3ccc(N4CCC(CCCO)CC4)cc3)nc2n1C1CCCC1", "values": [{"measurement": "IC50", "setting": "[1]", "value": 34, "unit": "nM"}]}, {"smiles": "O=c1ccc2cnc(Nc3ccc(N4CCC(CCCO)CC4)cc3)nc2n1C1CC2CCC1C2", "note": "(stereo not drawn)", "values": [{"measurement": "IC50", "setting": "HCT-116", "value": 213, "unit": "nM"}, {"measurement": "IC50", "setting": "[5]", "value": 165, "unit": "nM"}, {"measurement": "IC50", "setting": "[6]", "value": 209, "unit": "nM"}, {"measurement": "IC50", "setting": "[2]", "value": 8.62, "unit": "µM"}, {"measurement": "IC50", "setting": "[1]", "value": 8, "unit": "nM"}, {"measurement": "IC50", "setting": "[3]", "value": "> 40000", "unit": "nM"}]}]}
